Test results: US20070021508A1, “Method for treatment of Helicobacter pylori infection and/or an associated disease” (priority 2005, published 2007)
Values after ≈ are worked out from the molar mass of the structure shown.

How the values were obtained:
HP 43504 [1] = assay: Disc diffusion assay against HP for various compounds, HP 43504; assay type: cell-based, Helicobacter pylori; settings: for Disc diffusion diameter: 40 μl on 8 mm disc, 48 hours; for anti-HP activity compared to other compounds: HP 43504 lawn, disc diffusion
[2] = ornithine transcarbamylase-deficient patients, median dose 352 mg/kg/day, 26-month follow-up; cited from earlier work
HP 238 [3] = assay: Disc diffusion assay against HP for various compounds, HP 238; assay type: cell-based, Helicobacter pylori; settings: for Disc diffusion diameter: 40 μl on 8 mm disc, 48 hours; for anti-HP activity compared to other compounds: HP 238 lawn, disc diffusion
[4] = tested on: H. pylori ATCC43504 (HP 43504); assay: Minimum inhibitory concentration (MIC) against HP 43504; assay type: cell-based; settings: Helicobacter pylori
Experimental: (§1) The HP strains used in the present studies are H. pylori ATCC43504 (HP 43504) and HP 238. HP 238 was isolated from a patient with MALToma in National Cheng Kung University Hospital, Tainan, Taiwan, and used as an antibiotic sensitive control. These strains were cultured under a microaerophilic condition (O2 5%, CO2 10%, N2 85%) in a 37° C. chamber.

HP 238 [5] = assay: Disc diffusion assay against HP for PB plus various antibiotics, HP 238; assay type: cell-based, Helicobacter pylori; settings: HP 238, CDC agar, 8 mm disc, 48 hours; AMO 0.015 μg/20 μl, MTZ 5 μg/20 μl, TC 0.5 μg/20 μl, plus 20 μl water or 4-PB 2 mg/20 μl
Experimental: HP 43504 and HP 2378 were further used for testing PB in combination with various antibiotics in disc diffusion assays. After 2 days' pre-culture in a microaerophilic condition (O2 5%, CO2 10%, N2 85%) at 37° C., HP was suspended in a Brucella broth containing 5% sucrose to adjust its clone density at 1×10^8 CFU/ml. Then 100 μl of the bacterial suspension was inoculated onto a CDC agar plate. […] The agar plates were later transferred to a microaerobic jar to incubate at 37° C. The diameter of each inhibition zone (clear zone size) in the bacterial lawn was measured 48 hours later. […]

HP 43504 [6] = assay: Disc diffusion assay against HP for PB plus various antibiotics, HP 43504; assay type: cell-based, Helicobacter pylori; settings: HP 43504, CDC agar, 8 mm disc, 48 hours; AMO 0.015 μg/20 μl, MTZ 5 μg/20 μl, TC 0.5 μg/20 μl, plus 20 μl water or 4-PB 2 mg/20 μl
Experimental: HP 43504 and […] were further used for testing PB in combination with various antibiotics in disc diffusion assays. After 2 days' pre-culture in a microaerophilic condition (O2 5%, CO2 10%, N2 85%) at 37° C., HP was suspended in a Brucella broth containing 5% sucrose to adjust its clone density at 1×10^8 CFU/ml. Then 100 μl of the bacterial suspension was inoculated onto a CDC agar plate. […] The agar plates were later transferred to a microaerobic jar to incubate at 37° C. The diameter of each inhibition zone (clear zone size) in the bacterial lawn was measured 48 hours later. The tested combinations used in this experiment comprised 4-PB (50 mg/ml) with amoxicillin (AMO), metronidazole (MTZ) or tetracycline (TC).

HP 238 [7] = assay: Minimum inhibitory concentration (MIC) against HP 238; assay type: cell-based; settings: Helicobacter pylori; against clinically isolated strain HP 238
Experimental: as §1

[8] = HP 43504, Brucella agar, 50 mg/ml
[9] = HP 43504, Brucella agar, 100 mg/ml
[10] = HP 238, Brucella agar, 50 mg/ml
[11] = HP 238, Brucella agar, 100 mg/ml
[12] = HP 43504, 100 mg/ml, no clear zone outside the paper disc
[13] = HP 238, 100 mg/ml, no clear zone outside the paper disc

Compound	Disc diffusion diameter (HP 43504 [1]; [9]) [mm]	Disc diffusion diameter (HP 43504 [1]; HP 43504, CDC agar, 50 mg/ml) [mm]	Disc diffusion diameter (HP 238 [3]; [11]) [mm]	Disc diffusion diameter (HP 238 [3]; HP 238, CDC agar, 50 mg/ml) [mm]	anti-HP activity (HP 43504 [1]; [12])	Disc diffusion diameter (HP 43504 [1]; HP 43504, CDC agar, 100 mg/ml) [mm]	anti-HP activity (HP 238 [3]; [13])	Disc diffusion diameter (HP 238 [3]; HP 238, CDC agar, 100 mg/ml) [mm]	MIC [4] [µg/mL]	diameter of inhibition zone (clear zone size) (HP 238 [5]) [mm]	diameter of inhibition zone (clear zone size) (HP 43504 [6]) [mm]	also measured
4-phenylbutyrate [4-PB]	45	17	64	23								Disc diffusion diameter (HP 43504 [1]; HP 43504, Brucella agar, 5 mg/ml): 8 mm; Disc diffusion diameter (HP 43504 [1]; HP 43504, Brucella agar, 25 mg/ml): 8 mm; Disc diffusion diameter (HP 43504 [1]; [8]): 33 mm; Disc diffusion diameter (HP 43504 [1]; HP 43504, CDC agar, 5 mg/ml): 8 mm; Disc diffusion diameter (HP 43504 [1]; HP 43504, CDC agar, 25 mg/ml): 8 mm; anti-HP activity compared to other compounds (HP 43504 [1]): much better anti-HP activity; side effects related to therapy [2]: neither hyperammonemic episodes requiring hospitalization nor side effects related to therapy occurred; Disc diffusion diameter (HP 238 [3]; HP 238, Brucella agar, 5 mg/ml): 8 mm; Disc diffusion diameter (HP 238 [3]; HP 238, Brucella agar, 25 mg/ml): 26 mm; Disc diffusion diameter (HP 238 [3]; [10]): 40 mm; Disc diffusion diameter (HP 238 [3]; HP 238, CDC agar, 5 mg/ml): 8 mm; Disc diffusion diameter (HP 238 [3]; HP 238, CDC agar, 25 mg/ml): 9 mm; anti-HP activity compared to other compounds (HP 238 [3]): much better anti-HP activity
NCCC(N)C(=O)O (centres unmarked) [2,4-DAB, 2,4-diaminobutyric acid]	8		8		no obvious anti-HP activity	8	no obvious anti-HP activity	8				
CCC(N)C(=O)O (centres unmarked) [2-AB, 2-aminobutyric acid]	8		8		no obvious anti-HP activity	8	no obvious anti-HP activity	8				
CCC(C(=O)O)c1ccccc1 (centres unmarked) [2-PB, 2-phenylbutyrate]		8		14								Disc diffusion diameter (HP 43504 [1]; [8]): 18 mm; anti-HP activity compared to other compounds (HP 43504 [1]): much better anti-HP activity; Disc diffusion diameter (HP 238 [3]; [10]): 24 mm; anti-HP activity compared to other compounds (HP 238 [3]): much better anti-HP activity
CCCC(=O)[O-].[Na+] [Butyrate, Sodium butyrate]		8		11								disc diffusion capacity (HP 43504 [1]; HP 43504, compared with 4-PB or 2-PB): much smaller than 4-PB or 2-PB; disc diffusion capacity (HP 238 [3]; HP 238, compared with 4-PB or 2-PB): much smaller than 4-PB or 2-PB
NCCCC(=O)O [GABA, gama-aminobutyric acid]	8		8		no obvious anti-HP activity	8	no obvious anti-HP activity	8				
CCCC(CCC)C(=O)[O-].[Na+] [Valproate, sodium valproate]												anti-HP activity (HP 43504 [1]; HP 43504, 2 mg/ml to 16 mg/ml): no obvious anti-HP activity; Disc diffusion diameter (HP 43504 [1]; HP 43504, CDC agar, 2 mg/ml): 8 mm; Disc diffusion diameter (HP 43504 [1]; HP 43504, CDC agar, 4 mg/ml): 8 mm; Disc diffusion diameter (HP 43504 [1]; HP 43504, CDC agar, 8 mg/ml): 8 mm; Disc diffusion diameter (HP 43504 [1]; HP 43504, CDC agar, 16 mg/ml): 8 mm; anti-HP activity (HP 238 [3]; HP 238, 2 mg/ml to 16 mg/ml): no obvious anti-HP activity; Disc diffusion diameter (HP 238 [3]; HP 238, CDC agar, 2 mg/ml): 8 mm; Disc diffusion diameter (HP 238 [3]; HP 238, CDC agar, 4 mg/ml): 8 mm; Disc diffusion diameter (HP 238 [3]; HP 238, CDC agar, 8 mg/ml): 8 mm; Disc diffusion diameter (HP 238 [3]; HP 238, CDC agar, 16 mg/ml): 8 mm
CC1(C)S[C@@H]2[C@H](NC(=O)[C@H](N)c3ccc(O)cc3)C(=O)N2[C@H]1C(=O)O [amoxicillin]									0.12 (≈ 0.328 µM)	8	8	
Cc1ncc([N+](=O)[O-])n1CCO [metronidazole]									256 (≈ 1500 µM)	16	8	MIC (HP 238 [7]): 0.25 µg/mL (≈ 1.46 µM)
CN(C)[C@@H]1C(O)=C(C(N)=O)C(=O)[C@@]2(O)C(O)=C3C(=O)c4c(O)cccc4[C@@](C)(O)[C@H]3C[C@@H]12 [tetracycline]									1 (≈ 2.25 µM)	15	8	
